Source: paper PMC12500691 (Frontiers in Cellular and Infection Microbiology, 2025)

Legend:
SARS-CoV-2 ORF7a = SARS-CoV-2 ORF7a (Severe acute respiratory syndrome coronavirus 2, UniProt P0DTC7); test: biochemical; format: binding, SARS-CoV-2 (Wuhan variant)
SARS-CoV-2 proteins = format: binding, SARS-CoV-2 (Wuhan variant)

SARS-CoV-2 ORF7a, sequence (P0DTC7 16-96): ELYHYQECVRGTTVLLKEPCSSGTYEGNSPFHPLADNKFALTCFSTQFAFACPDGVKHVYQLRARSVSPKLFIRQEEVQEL

## CC[C@H](C)[C@H](NC(=O)[C@H](CCCCN)NC(=O)[C@H](CCC(=O)O)NC(=O)[C@H](CCCCN)NC(=O)[C@H](CO)NC(=O)[C@H](CCCCN)NC(=O)[C@H](CCCNC(=N)N)NC(=O)[C@H](Cc1ccccc1)NC(=O)[C@H](Cc1ccccc1)NC(=O)[C@H](CC(=O)O)NC(=O)CNC(=O)[C@H](CC(C)C)NC(=O)[C@@H](N)CC(C)C)C(=O)NCC(=O)N[C@@H](CCCCN)C(=O)N[C@@H](CCC(=O)O)C(=O)N[C@@H](Cc1ccccc1)C(=O)N[C@@H](CCCCN)C(=O)N[C@@H](CCCNC(=N)N)C(=O)N[C@H](C(=O)N[C@H](C(=O)N[C@@H](CCC(N)=O)C(=O)N[C@@H](CCCNC(=N)N)C(=O)N[C@H](C(=O)N[C@@H](CCCCN)C(=O)N[C@@H](CC(=O)O)C(=O)N[C@@H](Cc1ccccc1)C(=O)N[C@@H](CC(C)C)C(=O)N[C@@H](CCCNC(=N)N)C(=O)N[C@@H](CC(N)=O)C(=O)N[C@@H](CC(C)C)C(=O)N[C@H](C(=O)N1CCC[C@H]1C(=O)N[C@@H](CCCNC(=N)N)C(=O)N[C@H](C(=O)N[C@@H](CCC(=O)O)C(=O)N[C@@H](CO)C(=O)O)[C@@H](C)O)C(C)C)[C@@H](C)CC)C(C)C)[C@@H](C)CC [LL-37]
SARS-CoV-2 ORF7a
  Kd: 140 ± 80 nM

## synthetic control peptide: synthetic control peptide with an alpha-helical structure and a length of 29 amino acids, purchased from Biomatik (DKDGDLKTQIEKLWTEVNALKEIQALQTVCL)
SARS-CoV-2 proteins
  interaction with the SARS-CoV-2 proteins: did not show an interaction with the SARS-CoV-2 proteins
